“And” between values parts separate entries of the source, which are not always exact repeats. Equal values may be shown once. Read-outs that look alike come from different tables or passages of the source.
What was measured:
TMPRSS2 [1] = molecular target: T1, TMPRSS2 (Homo sapiens, UniProt O15393)
Target sequence in this assay (O15393 with tags, fused parts or gaps): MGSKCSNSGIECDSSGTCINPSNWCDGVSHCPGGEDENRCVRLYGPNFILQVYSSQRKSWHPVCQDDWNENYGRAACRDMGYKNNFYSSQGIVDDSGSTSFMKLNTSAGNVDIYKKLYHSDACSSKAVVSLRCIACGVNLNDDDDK
Target sequence in this assay (O15393 256-492): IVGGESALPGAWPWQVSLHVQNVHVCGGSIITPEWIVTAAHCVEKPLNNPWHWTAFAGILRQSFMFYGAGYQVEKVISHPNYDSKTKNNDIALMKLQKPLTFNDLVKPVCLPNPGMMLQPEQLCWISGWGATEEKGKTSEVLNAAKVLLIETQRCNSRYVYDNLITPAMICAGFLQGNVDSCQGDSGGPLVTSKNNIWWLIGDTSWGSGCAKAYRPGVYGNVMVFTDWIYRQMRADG

TMPRSS2 [2] = molecular target: T1, TMPRSS2; assay: biochemical; type: biochemical
Target sequence in this assay (O15393 256-492): as above
Target sequence in this assay (O15393 other isoform, or with tags, fused parts or gaps): as the sequence (O15393 with tags, fused parts or gaps) above

SARS-CoV-2 = type: cell-based; settings: UK-371804 1.1 μM; Supplementary Fig. 7c
Calu-3 cells = settings: rep1-rep3
in vitro = settings: human

For `O=C(O)CN(CCN(CC(=O)O)CC(=O)O)CC(=O)O` [EDTA], the “Tm of TMPRSS2” value (TMPRSS2 [1]) was 51.7 °C and 51.6 °C.

For `CC(C)(NS(=O)(=O)c1ccc2c(Cl)cnc(N=C(N)N)c2c1)C(=O)O` [UK-371804], the “Inhibition: TMPRSS2” value (TMPRSS2 [2]; 0.038147 nM, rep1-rep4, 3.8147e-05 µM) was 0.08% and 2.54% and 1.84% and 2.81%, the “Inhibition: TMPRSS2” value (TMPRSS2 [2]; 0.076294 nM, rep1-rep4, 7.6294e-05 µM) was 0.83% and 3.15% and 2.99% and 4.15% and the “Inhibition: TMPRSS2” value (TMPRSS2 [2]; 0.152588 nM, rep1-rep4, 0.000152588 µM) was 1.86% and 5.33% and 3.17% and 6.82%. For the same molecule, the inhibition at 0.000305176 µM (TMPRSS2 [2]; 0.305176 nM, rep1-rep4) was 5.7%, the “Inhibition: TMPRSS2” value (TMPRSS2 [2]; 0.305176 nM, rep1-rep4, 0.000305176 µM) was 8.86% and 5.77% and 9.17% and the IC50 (TMPRSS2 [2]; 0.5 nM TMPRSS2, 10 μM substrate, mean ± SD, four replicates) was 0.00459 µM. The “Inhibition: TMPRSS2” value (TMPRSS2 [2]; 0.610352 nM, rep1-rep4, 0.000610352 µM) was 13.28% and 12.75% and 14.23%, the inhibition at 0.000610352 µM (TMPRSS2 [2]; 0.610352 nM, rep1-rep4, read-out: Inhibition: TMPRSS2) was 10.6% and the “Inhibition: TMPRSS2” value (TMPRSS2 [2]; 1.2207 nM, rep1-rep4, 0.0012207 µM) was 21.81% and 21.57% and 22.98%. For the same molecule, the inhibition at 0.0012207 µM (TMPRSS2 [2]; 1.2207 nM, rep1-rep4, read-out: Inhibition: TMPRSS2) was 19.4%, the “Inhibition: TMPRSS2” value (TMPRSS2 [2]; 2.44141 nM, rep1-rep4, 0.00244141 µM) was 37.42% and 35.32% and 36.99% and the inhibition at 0.00244141 µM (TMPRSS2 [2]; 2.44141 nM, rep1-rep4, read-out: Inhibition: TMPRSS2) was 34.9%. For the same molecule, the “Inhibition: TMPRSS2” value (TMPRSS2 [2]; 4.88281 nM, rep1-rep4, 0.00488281 µM) was 52.70% and 52.38% and 53.49%, the inhibition at 0.00488281 µM (TMPRSS2 [2]; 4.88281 nM, rep1-rep4, read-out: Inhibition: TMPRSS2) was 50.8% and the “Inhibition: TMPRSS2” value (TMPRSS2 [2]; 9.76562 nM, rep1-rep4, 0.00976562 µM) was 69.20% and 69.17%. For the same molecule, the inhibition at 0.00976562 µM (TMPRSS2 [2]; 9.76562 nM, rep1-rep4, read-out: Inhibition: TMPRSS2) was 68.8%, the “Inhibition: TMPRSS2” value (TMPRSS2 [2]; 19.5312 nM, rep1-rep4, 0.0195312 µM) was 82.58% and 82.53% and 82.55% and the inhibition at 0.0195312 µM (TMPRSS2 [2]; 19.5312 nM, rep1-rep4, read-out: Inhibition: TMPRSS2) was 82.4%. For the same molecule, the “Inhibition: TMPRSS2” value (TMPRSS2 [2]; 39.0625 nM, rep1-rep4, 0.0390625 µM) was 90.09% and 90.26% and 90.84%, the inhibition at 0.0390625 µM (TMPRSS2 [2]; 39.0625 nM, rep1-rep4, read-out: Inhibition: TMPRSS2) was 90.6% and the “Inhibition: TMPRSS2” value (TMPRSS2 [2]; 78.125 nM, rep1-rep4, 0.078125 µM) was 94.96% and 95.13% and 95.23%. For the same molecule, the inhibition at 0.078125 µM (TMPRSS2 [2]; 78.125 nM, rep1-rep4, read-out: Inhibition: TMPRSS2) was 95.3%, the “Inhibition: TMPRSS2” value (TMPRSS2 [2]; 156.25 nM, rep1-rep4, 0.15625 µM) was 97.46% and 97.80% and 98.15% and the inhibition at 0.15625 µM (TMPRSS2 [2]; 156.25 nM, rep1-rep4, read-out: Inhibition: TMPRSS2) was 97.9%. The “Inhibition: TMPRSS2” value (TMPRSS2 [2]; 312.5 nM, rep1-rep4, 0.3125 µM) was 98.77% and 99.07% and 99.48%, the inhibition at 0.3125 µM (TMPRSS2 [2]; 312.5 nM, rep1-rep4, read-out: Inhibition: TMPRSS2) was 99.1% and the “Inhibition: TMPRSS2” value (TMPRSS2 [2]; 625 nM, rep1-rep4, 0.625 µM) was 100.11% and 99.99% and 100.09%. The inhibition at 0.625 µM (TMPRSS2 [2]; 625 nM, rep1-rep4, read-out: Inhibition: TMPRSS2) was 100%, the “Inhibition: TMPRSS2” value (TMPRSS2 [2]; 1250 nM, rep1-rep4, 1.25 µM) was 100.27% and 100.14% and 100.40% and the inhibition at 1.25 µM (TMPRSS2 [2]; 1250 nM, rep1-rep4, read-out: Inhibition: TMPRSS2) was 101%. For the same molecule, the “Inhibition: TMPRSS2” value (TMPRSS2 [2]; 2500 nM, rep1-rep4, 2.5 µM) was 100.86% and 100.80% and 100.93%, the inhibition at 2.5 µM (TMPRSS2 [2]; 2500 nM, rep1-rep4, read-out: Inhibition: TMPRSS2) was 101% and the “Inhibition: TMPRSS2” value (TMPRSS2 [2]; 5000 nM, rep1-rep4, 5 µM) was 102.04% and 102.07% and 102.13%. The inhibition at 5 µM (TMPRSS2 [2]; 5000 nM, rep1-rep4, read-out: Inhibition: TMPRSS2) was 101%, the Virus titer (SARS-CoV-2) was 31700 TCID50/ml and 20000 TCID50/ml and the Cytotoxicity (Calu-3 cells; 0.0128 μM) was 4.90% and 4.97% and 4.91%. For the same molecule, the Cytotoxicity (Calu-3 cells; 0.064 μM) was 5.03% and 5.08% and 5.05%, the Cytotoxicity (Calu-3 cells; 8 μM) was 8.30% and 8.32% and 8.28% and the Cytotoxicity (Calu-3 cells; 40 μM) was 11.32% and 11.36% and 11.39%. The Cytotoxicity (Calu-3 cells; 200 μM) was 60.70% and 60.73% and 60.71%, the Cytotoxicity (Calu-3 cells; 1000 μM) was 98.32% and 98.37% and 98.33% and the CC50 (in vitro) was 172 µM.

— PMC10663540, “Structure-based discovery of dual pathway inhibitors for SARS-CoV-2 entry” (Nature Communications, 2023)
